Data on four molecules can be found in US7491835B2, “Prodrugs of amino acids with affinity for the α2δ-protein” (Pfizer Inc, priority 2003, dated 2009).

In general, Papp A→B refers to the apparent permeability from the apical to the basolateral side of a cell layer. A low value points to slow passage. For orientation: Papp B→A means how fast a substance crosses the layer from the basolateral side. The term efflux ratio denotes a quotient of directional permeabilities that is used to spot active efflux.

Each structure is given as a SMILES string.

Data set [1] can be described thus: in vitro. As to conditions: human, Caco-2. As for the experimental part: (§1) Mannitol was used as a negative marker since it appears to be absorbed through the paracellular rather than the transcellular pathway. Cell transport, and efflux studies were conducted with Caco-2 cells grown on Snapwells between 22 to 28 days postseeding. Typically, 10 mM MES buffer (pH 6.5) with 5 mM KCl, 135 mM NaCl, 1.8 mM CaCl2, and 5 mM D-glucose was used for the AP side and 10 mM MOPS (pH 7.4) with 5 mM KCl, 132.5 mM NaCl, 1.8 mM CaCl2, and 5 mM D-glucose was used for the BL side. After washing the monolayers, drug-free media at the appropriate pH (pH 7.4 or 6.5) were first added to both compartments to allow the cells to equilibrate for approximately 15 min at 37° C. Transport studies were then conducted using 1.5 mL of transport media in the apical side and 2.5 mL in the basolateral side. The donor solution containing the probe compound was added to either the apical or basolateral compartment. Plates were placed in a shaking incubator (Boekel Scientific, Feasterville, Pa.) at 37° C. during the experiments. Transport in both apical-to-basolateral (A-to-B) and basolateral-to-apical (B-to-A) directions was measured for each drug. Aliquots were removed from the nondosing compartment at predetermined time points and replaced with fresh medium to maintain a constant volume. During studies with radiolabeled compounds, 100 uL samples were taken at each time point. The apparent permeability coefficients (Papp) were calculated using the following equation: Papp=dQ/dtX1/CoX1/A, where dQ/dt is the permeability rate, Co is the initial concentration in the donor compartment, and A is the surface area of the membrane. Flux rates (dQ/dt×1/A) were calculated by plotting the amount transported per unit area as a function of time and determining the slope of the line using linear regression.

The nature of data set [2]: Vogel conflict model of anxiety. It counts as in vivo. Conditions: 30 mg/kg, PO. The text has this: The In vivo activity of compounds of this invention can be determined in animal models of hyperalgesia (See Sluka, K., et al. 2001, “Unilateral Intramuscular Injections Of Acidic Saline Produce A Bilateral, Long-Lasting Hyperalgesia”, Muscle Nerve 24: 37-46; Dixon, W., 1980, “Efficient analysis of experimental observations”. Ann Rev Pharmacol Toxicol 20:441-462; Randall L. O. and Selitto J. J., “A Method For Measurement Of Analgesic Activity On Inflamed Tissue,” Arch. Int. Pharmacodyn, 1957;4:409-419; Hargreaves K., Dubner R., Brown F., Flores C., and Joris J. “A New And Sensitive Method For Measuring Thermal Nociception In Cutaneous Hyperalgesia”. Pain. 32:77-88, 1988.), anxiety (Vogel J. R., Beer B., and Clody D. E., “A Simple And Reliable Conflict Procedure For Testing Anti-Anxiety Agents”, Psychopharmacologia 21:1-7, 1971),
The In vivo activity of a compound of this invention was determined in an animal model of anxiety as set forth in Vogel J R, Beer B., and Clody D E, “A Simple And Reliable Conflict Procedure For Testing Anti-Anxiety Agents”, Psychopharmacologia 21:1-7, 1971).

Data set [3] has as its system Caco-2 cells. Put plainly: Caco-2 cell transport and efflux (permeability) study. Here is the method: as §1

In data set [1], `COCCc1ccc(OCC(O)CNC(C)C)cc1` (stereo not drawn) [Metoprolol] returned a Papp A→B of 8.74 ×10⁻⁶ cm/s and an apparent permeability from basolateral to apical (Papp B→A) of 20.3 ×10⁻⁶ cm/s.
In the case of `CCC[C@@H](C)C[C@H](CNC(=O)[C@@H](N)CC(C)C)CC(=O)O` [3S-[(2S-Amino-4-methyl-pentanoylamino)-methyl]-5R-methyl-octanoic acid], the “Anxiolytic Activity, percent reference activity compared to pregabalin” value in data set [2] is reported as 138.10%.
Regarding `CCCC[C@@H](C)C[C@H](CNC(=O)[C@@H](N)CC(C)C)CC(=O)O` [3S-[(2S-Amino-4-methyl-pentanoylamino)-methyl]-5R-methyl-nonanoic acid], the Substrate for efflux result in data set [3] (Caco-2, 10 uM, concluded from ratio B to A/A to B) is given as “unlikely to be a substrate for efflux”. Besides, in data set [3] (Caco-2, apical to basal, apical pH 6.5, basolateral pH 7.4, 37° C.), the “A to B Peff * 10^−6” value is 0.74 10^−6. Besides, the “Caco-2 permeability, apical to basolateral direction” value in data set [3] (concentration of 10 uM) came out at 0.74 ×10⁻⁶ cm/s.
For `OC[C@@H](O)[C@@H](O)[C@H](O)[C@H](O)CO` [Mannitol], in data set [1], the Papp A→B is 1.81 ×10⁻⁶ cm/s, the Papp B→A turned out to be 1.41 ×10⁻⁶ cm/s and the efflux ratio turned out to be 0.78.
